For nine compounds, IC50, Catalyptic action and Locomotor activity results are on record in ChEMBL document CHEMBL1130263 (J Med Chem, 1997).

The target of experiment [1] is D(1A) dopamine receptor (Rattus norvegicus, UniProt P18901).
Description: Inhibitory binding of [3H]SCH-23390 to Dopamine receptor D1 in membranes from rat corpus striatum
In experiment [2] the target is 5-hydroxytryptamine receptor 2A (Rattus norvegicus, UniProt P14842). Description: Inhibition of [3H]ketanserin binding to 5-hydroxytryptamine 2A receptor from rat brain.
Experiment [3] deals with T1, 5-hydroxytryptamine receptor 2C (Rattus norvegicus, UniProt P08909).
T1 sequence (P08909 whole entry): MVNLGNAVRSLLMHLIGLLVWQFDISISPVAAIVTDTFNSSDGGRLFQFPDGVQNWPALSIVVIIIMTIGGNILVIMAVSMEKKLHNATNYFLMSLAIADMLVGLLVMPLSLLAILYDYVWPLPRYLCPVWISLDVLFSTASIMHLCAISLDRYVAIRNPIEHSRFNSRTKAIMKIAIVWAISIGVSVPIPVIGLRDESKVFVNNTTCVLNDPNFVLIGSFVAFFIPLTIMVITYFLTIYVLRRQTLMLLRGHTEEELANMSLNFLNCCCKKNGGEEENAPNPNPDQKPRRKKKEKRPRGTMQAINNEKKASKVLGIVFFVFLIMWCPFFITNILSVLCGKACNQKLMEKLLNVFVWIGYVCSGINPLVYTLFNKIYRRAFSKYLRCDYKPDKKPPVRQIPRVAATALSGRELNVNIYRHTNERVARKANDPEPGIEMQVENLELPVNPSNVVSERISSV
Description: Inhibition of [3H]mesulergine binding to 5-hydroxytryptamine 2C receptor in rat brain membranes

Experiment [4] has as its target T2, Adrenergic receptor alpha-1 (Rattus norvegicus, UniProt P15823+P23944+P43140).
T2 sequence (P15823 whole entry): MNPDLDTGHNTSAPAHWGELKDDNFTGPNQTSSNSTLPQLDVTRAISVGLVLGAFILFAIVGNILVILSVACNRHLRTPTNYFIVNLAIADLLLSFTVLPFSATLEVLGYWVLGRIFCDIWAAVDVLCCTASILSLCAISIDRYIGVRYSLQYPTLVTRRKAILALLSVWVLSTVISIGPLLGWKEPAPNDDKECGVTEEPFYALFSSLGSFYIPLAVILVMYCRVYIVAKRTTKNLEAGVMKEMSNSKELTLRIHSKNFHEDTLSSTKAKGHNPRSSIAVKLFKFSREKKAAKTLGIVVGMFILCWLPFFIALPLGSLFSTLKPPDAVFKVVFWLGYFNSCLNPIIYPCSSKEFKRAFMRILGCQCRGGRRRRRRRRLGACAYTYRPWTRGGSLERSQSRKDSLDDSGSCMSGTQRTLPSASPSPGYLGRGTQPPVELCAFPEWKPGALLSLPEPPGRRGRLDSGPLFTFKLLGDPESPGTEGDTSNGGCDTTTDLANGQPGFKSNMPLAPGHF
T2 sequence (P23944 whole entry): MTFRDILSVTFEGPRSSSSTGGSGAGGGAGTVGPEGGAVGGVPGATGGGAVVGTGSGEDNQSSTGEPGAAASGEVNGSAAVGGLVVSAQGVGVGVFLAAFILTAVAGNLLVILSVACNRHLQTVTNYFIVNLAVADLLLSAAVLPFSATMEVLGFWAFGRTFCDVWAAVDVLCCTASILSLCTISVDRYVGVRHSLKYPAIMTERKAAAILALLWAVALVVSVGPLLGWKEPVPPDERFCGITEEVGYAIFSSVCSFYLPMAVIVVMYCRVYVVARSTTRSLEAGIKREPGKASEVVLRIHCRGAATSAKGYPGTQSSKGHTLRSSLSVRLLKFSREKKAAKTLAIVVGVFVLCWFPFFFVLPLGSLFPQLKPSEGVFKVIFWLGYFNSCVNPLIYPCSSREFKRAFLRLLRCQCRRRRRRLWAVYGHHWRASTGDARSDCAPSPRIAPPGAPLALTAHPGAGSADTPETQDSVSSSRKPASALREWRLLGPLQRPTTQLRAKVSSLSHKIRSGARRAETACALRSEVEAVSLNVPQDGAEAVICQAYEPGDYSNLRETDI
T2 sequence (P43140 whole entry): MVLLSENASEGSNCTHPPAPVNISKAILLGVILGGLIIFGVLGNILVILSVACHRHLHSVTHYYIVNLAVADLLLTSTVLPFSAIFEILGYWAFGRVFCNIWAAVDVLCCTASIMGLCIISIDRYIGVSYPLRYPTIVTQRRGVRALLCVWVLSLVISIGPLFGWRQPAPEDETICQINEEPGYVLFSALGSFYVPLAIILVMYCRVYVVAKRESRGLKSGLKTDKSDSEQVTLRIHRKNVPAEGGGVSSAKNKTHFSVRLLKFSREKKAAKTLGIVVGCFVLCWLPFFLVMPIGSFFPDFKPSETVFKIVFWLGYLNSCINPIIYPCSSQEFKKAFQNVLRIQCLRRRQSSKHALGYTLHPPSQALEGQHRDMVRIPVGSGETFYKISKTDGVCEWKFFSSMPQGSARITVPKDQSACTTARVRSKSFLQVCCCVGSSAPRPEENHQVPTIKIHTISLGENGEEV
Description: Inhibition of [3H]prazosin binding to Alpha-1 adrenergic receptor in rat brain membranes.

Experiment [5] concerns the target T3, Muscarinic acetylcholine receptor M1 (Homo sapiens, UniProt P11229).
T3 sequence (P11229 whole entry): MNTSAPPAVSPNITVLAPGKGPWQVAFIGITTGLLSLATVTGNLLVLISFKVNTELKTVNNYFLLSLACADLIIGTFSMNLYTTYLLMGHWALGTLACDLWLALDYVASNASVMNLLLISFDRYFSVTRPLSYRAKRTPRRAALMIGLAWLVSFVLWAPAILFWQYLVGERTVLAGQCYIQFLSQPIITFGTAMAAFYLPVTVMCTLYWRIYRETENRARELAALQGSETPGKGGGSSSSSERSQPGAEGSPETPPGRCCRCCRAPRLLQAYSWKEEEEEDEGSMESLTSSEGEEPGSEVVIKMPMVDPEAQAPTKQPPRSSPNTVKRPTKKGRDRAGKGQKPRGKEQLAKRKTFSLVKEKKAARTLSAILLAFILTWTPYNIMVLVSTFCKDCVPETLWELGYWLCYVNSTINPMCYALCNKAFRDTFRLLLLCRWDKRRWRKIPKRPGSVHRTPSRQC
Description: Inhibitory binding of [3H]pirenzepine to human Muscarinic acetylcholine receptor M1 in membranes from CHO-K1 cells. Type of experiment: cell-based.

Experiment [6] addresses Histamine H1 receptor (Rattus norvegicus, UniProt P31390). As to the kind of experiment: Inhibitory binding of [3H]mepyramine to histamine H1 receptors in rat brain membranes. Type of experiment: cell membranes.
Experiment [7] has as its system Rattus norvegicus. Description: Catalytic action on male Wistar rats after subcutaneous administration of 10 µmol/kg dose of compound.
For experiment [8], the system named is Rattus norvegicus. As to the kind of experiment: Locomotor activity in male Wistar rats after a dose of 10 uM/kg, 30 min before 1 mg/kg of apomorphine administration. It is filed as functional.
For experiment [9], the system named is Rattus norvegicus. As to the kind of experiment: Catalytic action on male Wistar rats after subcutaneous administration of 100 µmol/kg dose of compound.
Experiment [10] relates to Rattus norvegicus. As to the kind of experiment: Locomotor activity in male Wistar rats after a dose of 100 uM/kg, 30 min before 1 mg/kg of apomorphine administration. Type of experiment: functional.
Experiment [11] deals with Rattus norvegicus. As to the kind of experiment: Catalytic action on male Wistar rats after subcutaneous administration of 0.3 µmol/kg dose of compound.
In experiment [12] the test system is Rattus norvegicus. As to the kind of experiment: Locomotor activity in male Wistar rats after a dose of 0.3 uM/kg, 30 min before 1 mg/kg of apomorphine administration. Type of experiment: functional.
Experiment [13] deals with Rattus norvegicus. As to the kind of experiment: Locomotor activity in male Wistar rats after a dose of 3.0 uM/kg, 30 min before 1 mg/kg of apomorphine administration. It is filed as functional.
For experiment [14], the system named is Rattus norvegicus. As to the kind of experiment: Catalytic action on male Wistar rats after subcutaneous administration of 30 µmol/kg dose of compound.
Experiment [15] deals with Rattus norvegicus. As to the kind of experiment: Catalytic action on male Wistar rats after subcutaneous administration of 3.0 µmol/kg dose of compound.
The test system of experiment [16] is Rattus norvegicus. Description: Locomotor activity in male Wistar rats after a dose of 30 uM/kg, 30 min before 1 mg/kg of apomorphine administration. Type of experiment: functional.
In experiment [17] the test system is Rattus norvegicus. As to the kind of experiment: Catalytic action on male Wistar rats after subcutaneous administration of 1.0 µmol/kg dose of compound.
For experiment [18], the system named is Rattus norvegicus. Description: Locomotor activity in male Wistar rats after a dose of 1.0 uM/kg, 30 min before 1 mg/kg of apomorphine administration. It is filed as functional.
Experiment [19] deals with Rattus norvegicus. As to the kind of experiment: Catalytic action on male Wistar rats after subcutaneous administration of 0.003 µmol/kg dose of compound.
In experiment [20] the test system is Rattus norvegicus. As to the kind of experiment: Locomotor activity in male Wistar rats after a dose of 0.03 uM/kg, 30 min before 1 mg/kg of apomorphine administration. It is filed as functional.
The test system of experiment [21] is Rattus norvegicus. As to the kind of experiment: Locomotor activity in male Wistar rats after a dose of 0.003 uM/kg, 30 min before 1 mg/kg of apomorphine administration. Type of experiment: functional.
Experiment [22] deals with Rattus norvegicus. Description: Catalytic action on male Wistar rats after subcutaneous administration of 0.03 µmol/kg dose of compound.
Experiment [23] concerns Rattus norvegicus. As to the kind of experiment: Locomotor activity in male Wistar rats after a dose of 3 uM/kg, 30 min before 1 mg/kg of apomorphine administration. Type of experiment: functional.

The term IC50 denotes the concentration at which inhibition is half-maximal.

Chain of D(1A) dopamine receptor (P18901 whole entry): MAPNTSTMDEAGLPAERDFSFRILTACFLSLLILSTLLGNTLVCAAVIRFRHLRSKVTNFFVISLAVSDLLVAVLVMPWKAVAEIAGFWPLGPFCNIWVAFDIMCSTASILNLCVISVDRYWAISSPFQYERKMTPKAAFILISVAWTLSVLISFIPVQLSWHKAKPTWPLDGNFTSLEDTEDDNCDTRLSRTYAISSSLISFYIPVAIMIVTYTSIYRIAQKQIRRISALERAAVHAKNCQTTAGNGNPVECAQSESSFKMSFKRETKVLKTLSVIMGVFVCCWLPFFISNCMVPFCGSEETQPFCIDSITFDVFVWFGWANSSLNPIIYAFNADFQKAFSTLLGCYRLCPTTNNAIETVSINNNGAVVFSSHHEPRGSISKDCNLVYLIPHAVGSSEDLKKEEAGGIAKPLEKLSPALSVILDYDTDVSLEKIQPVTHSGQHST
Chain of 5-hydroxytryptamine receptor 2A (P14842 whole entry): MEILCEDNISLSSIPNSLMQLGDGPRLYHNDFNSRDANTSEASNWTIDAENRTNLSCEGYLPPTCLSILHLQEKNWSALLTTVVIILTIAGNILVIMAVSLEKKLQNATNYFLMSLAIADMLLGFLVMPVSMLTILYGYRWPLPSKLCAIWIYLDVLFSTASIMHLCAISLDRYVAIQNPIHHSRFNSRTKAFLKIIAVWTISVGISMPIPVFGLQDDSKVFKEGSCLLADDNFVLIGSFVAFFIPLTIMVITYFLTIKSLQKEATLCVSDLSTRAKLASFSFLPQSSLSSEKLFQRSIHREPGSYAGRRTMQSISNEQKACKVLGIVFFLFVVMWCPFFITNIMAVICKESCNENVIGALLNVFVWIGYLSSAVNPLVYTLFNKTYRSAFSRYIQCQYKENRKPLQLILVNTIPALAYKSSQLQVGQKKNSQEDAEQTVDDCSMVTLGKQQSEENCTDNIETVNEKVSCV
Chain of Histamine H1 receptor (P31390 whole entry): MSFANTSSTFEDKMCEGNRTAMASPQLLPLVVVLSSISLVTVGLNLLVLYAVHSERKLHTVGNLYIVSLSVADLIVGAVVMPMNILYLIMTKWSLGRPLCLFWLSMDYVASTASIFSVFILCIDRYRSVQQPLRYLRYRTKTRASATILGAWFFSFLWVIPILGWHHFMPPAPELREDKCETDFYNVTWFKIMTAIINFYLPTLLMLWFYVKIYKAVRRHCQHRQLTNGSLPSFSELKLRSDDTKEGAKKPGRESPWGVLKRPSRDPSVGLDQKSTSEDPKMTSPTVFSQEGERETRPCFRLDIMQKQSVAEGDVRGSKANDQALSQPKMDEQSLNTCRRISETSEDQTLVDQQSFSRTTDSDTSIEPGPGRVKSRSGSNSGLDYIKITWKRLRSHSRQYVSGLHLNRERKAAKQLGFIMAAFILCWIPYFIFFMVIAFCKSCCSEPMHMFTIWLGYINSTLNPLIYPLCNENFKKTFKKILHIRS

As to `COc1ccc2c(c1)C(N1CCN(C)CC1)=Nc1ccccc1N2`, the IC50 was found to be 550 nM in experiment [1]; 12 nM in experiment [2]; 21 nM in [3]; 120 nM in [4]; 39 nM in [5].

As to `CN1CCN(C2=Nc3cc(O)ccc3Nc3ccccc32)CC1`, the IC50 was found to be 9800 nM in experiment [1], 440 nM in experiment [3], 1200 nM in experiment [4] and 27 nM in experiment [5].

For `CN1CCN(C2=Nc3cc(OS(=O)(=O)C(F)(F)F)ccc3Nc3ccccc32)CC1`, the IC50 is 930 nM in experiment [1]; 550 nM in [2]; 720 nM in experiment [6]; 620 nM in experiment [3]; above 1000 nM in experiment [4]; 35 nM in [5].

Turning to `CN1CCN(C2=Nc3cc(Cl)ccc3Nc3ccccc32)CC1` [CLOZAPINE], the Catalyptic action in experiment [7] and in experiment [9] was 0 throughout. Moreover, the Locomotor activity is recorded as 98 in [8] and 7 in experiment [10].

Turning to `CN1CCN(C2=Nc3ccccc3Nc3ccc(Cl)cc32)CC1` [ISOCLOZAPINE], the Catalyptic action in [7] came to 25; in experiment [11], 0; in [14], 75; in experiment [15] it was 0; in [17] it was 0. The IC50 in experiment [1] turned out to be 11 nM; in experiment [4], 64 nM; in [5] it was 6 nM. In addition, the Locomotor activity in experiment [8] came to 3; in [12] it was 114; in [13] it was 65; in [16], 3; in experiment [18] it was 82.

In the case of `CN1CCN(C2=Nc3ccccc3Nc3ccc(O)cc32)CC1`, the IC50 in [1] is 550 nM; in experiment [2], 35 nM; in experiment [3], 81 nM; in [4] it was 260 nM; in [5] it was 37 nM.

In the case of `COc1ccc2c(c1)N=C(N1CCN(C)CC1)c1ccccc1N2`, the half-maximal inhibitory concentration (IC50) in [1] stood at 7400 nM; in [3], 86 nM; in experiment [4] it was 240 nM; in experiment [5], 19 nM.

As for `O=C(CCCN1CCC(O)(c2ccc(Cl)cc2)CC1)c1ccc(F)cc1` [HALOPERIDOL], the Catalyptic action came out at 100 in experiment [11], 0 in experiment [19] and 75 in experiment [22]. In addition, the Locomotor activity in [12] is recorded as 1; in experiment [20], 9; in experiment [21] it was 88.

With `CN1CCN(C2=Nc3ccccc3Nc3ccc(OS(=O)(=O)C(F)(F)F)cc32)CC1`, the Catalyptic action in [7] and in experiment [9] was 0 in each case. Also, the IC50 in experiment [1] amounted to 64 nM; in experiment [2] it was 8 nM; in [6] it was 47 nM; in experiment [3], 34 nM; in experiment [4], 12 nM; in experiment [5] it was 1200 nM. Also, the Locomotor activity was found to be 102 in [8], 8 in experiment [10], 87 in experiment [23] and 22 in experiment [16].
